Laboratory results as given in ChEMBL document CHEMBL1156829 (Proc Natl Acad Sci U S A, 2008).

Key:
[1] = NOVARTIS: Cytotoxicity against human hepatocellular carcinoma cell line (Huh7); type: toxicity, cell-based, Huh-7; conditions: Huh7 cells (hepatocellular carcinoma cell line)
Plasmodium falciparum [2] = test: NOVARTIS: Inhibition of Plasmodium falciparum W2 (drug-resistant) proliferation in erythrocyte-based infection assay; type: functional, organism-based; conditions: Plasmodium falciparum, W2; read-out: EC50
Plasmodium falciparum [3] = test: NOVARTIS: Inhibition of Plasmodium falciparum 3D7 (drug-susceptible) proliferation in erythrocyte-based infection assay; type: functional, organism-based; conditions: Plasmodium falciparum, 3D7

| SMILES | CC50 [1] | EC50 (Plasmodium falciparum [2]) | EC50 (Plasmodium falciparum [3]) |
| --- | --- | --- | --- |
| COc1ccc(C2CC(=O)C3=C(C2)NC(C)=C(C(=O)OC2CCCC2)C3c2ccc(Cl)cc2)cc1 (stereo not given) | > 100000 nM | 125 nM | 260 nM |
| O=C1Nc2ccccc2Sc2ccccc21 | > 100000 nM | > 12500 nM | > 3030 nM |
| COc1cccc(NC(=O)N(Cc2ccccc2)C(C)c2nc3ccccc3c(=O)n2-c2cc(C)ccc2OC)c1 (stereo not given) | > 10000 nM | 1220 nM | 1240 nM |
| O=C(Cc1cccnc1)N1CCC(Oc2ccncc2)CC1 | 104 nM | 141 nM | 626 nM |
| COc1ccccc1N1C(=N)SC(=Cc2ccc(OCc3ccccc3F)cc2)C1=O | > 100000 nM | 1080 nM | 422 nM |
| COc1cc(C(=O)N2CCN(Cc3cccc(Br)c3)CC2)cc(OC)c1OC | > 100000 nM | 5580 nM | > 12500 nM |
| O=C(NCC1CCCO1)c1cc(S(=O)(=O)N2CCCCC2)c[nH]1 (stereo not given) | > 10000 nM | > 860 nM | > 1250 nM |
| Cc1cccc(C)c1N(CC(=O)NCc1ccco1)S(C)(=O)=O | > 10000 nM | 725 nM | 851 nM |
| CCC(C)(C#CCN1CCCC1)OC(C)=O (stereo not given) | > 10000 nM | > 1250 nM | > 1050 nM |
| CCC(CC)CN1CCC(O)(c2ccc3oc(C(=O)Nc4ccc(OC)cc4)cc3c2)CC1 | > 100000 nM | 617 nM | 954 nM |
| CC(=O)N(C1=C(N(C)C)C(=O)c2ccccc2C1=O)c1cccc(Cl)c1 | 3180 nM | 64.9 nM | 27.3 nM |
| CC(=O)Nc1ccc2c(c1)C(=O)N(C(CC(C)(C)C)C(=O)NC1CCCCC1)[C@@H](CCC(=O)O)C(=O)N2 (stereo not given in full) | 6180 nM | 51.6 nM | 868 nM |
| COc1ccc(OC)c(NC(=O)CSc2nc(NCc3ccc(Cl)cc3)c3ccccc3n2)c1 | > 100000 nM | > 11200 nM | > 11200 nM |
| COc1ccc2nc3cc(Cl)ccc3c(NCCCN(CCCN)CCCCN)c2c1 | > 10000 nM | 22.3 nM | 78.6 nM |
| CCCNC(=O)c1ccc(OC2CCN(CC3CCCCC3)CC2)c(Cl)c1 | 42400 nM | 181 nM | 287 nM |
| Cc1noc(C)c1S(=O)(=O)N(Cc1ccccc1)CC(O)CN1CCC(NC(=O)c2ccc(F)cc2)C1 (stereo not given) | > 10000 nM | < 12.1 nM | 447 nM |
| CCN(CC)CCCNC(=S)N(CCN(CC)CC)Cc1cc2ccc(C)c(C)c2[nH]c1=O | 51100 nM | > 2610 nM | 3280 nM |
| C(#Cc1ccccc1)C[N+]1(CC#Cc2ccc(C#CC[N+]3(CC#Cc4ccccc4)CCCCC3)cc2)CCCCC1 | > 100000 nM | 252 nM | 493 nM |

| SMILES | CC50 [1] | EC50 (Plasmodium falciparum [2]) | EC50 (Plasmodium falciparum [3]) |
| --- | --- | --- | --- |
| Cc1nn(-c2cc(N3CCOCC3)ccc2[N+](=O)[O-])c(=O)c2ccccc12 | > 10000 nM | > 1250 nM | > 995 nM |
| Cc1nc2ccccc2c(=O)n1-c1ccc([N+](=O)[O-])cc1 | > 10000 nM | 896 nM | 765 nM |
| CCOC(=O)c1ccc(NC2=C(N3CCCCC3)C(=O)c3ccccc3C2=O)cc1 | > 80500 nM | 334 nM | 243 nM |
| C[n+]1ccc(/C=C/c2ccc(Br)cc2)cc1 | > 10000 nM | 313 nM | 455 nM |
| O=c1c2c([nH]c3ccccc13)CCCCCC2 | > 100000 nM | 2670 nM | 2940 nM |
| CCN1/C(=C/c2sc3ccc(OC)cc3[n+]2CC)C=Cc2cc(OC)ccc21 | > 10000 nM | 552 nM | 527 nM |
| c1ccc(Cn2c(N=NNc3nc4ccccc4n3Cc3ccccc3)nc3ccccc32)cc1 | 19200 nM | 81.9 nM | 85.4 nM |
| COc1ccc(C(C)=NNc2nnc(C)c(O)n2)cc1 | 7680 nM | 258 nM | 188 nM |
| c1ccc(CSc2nc3ccncc3[nH]2)cc1 | > 10000 nM | > 1150 nM | > 1250 nM |
| COC(=O)C1=C(C)NC2=C(C(=O)c3ccccc32)C1c1ccc(OCC#N)c(OC)c1 (stereo not given) | 84900 nM | 1530 nM | 590 nM |
| COc1cc(NC(C)CCCN(Cc2ccc(OC)c(OC)c2)C(=O)c2ccc3ccccc3c2)c2ncccc2c1 (stereo not given) | 5330 nM | 247 nM | 409 nM |
| CCOc1ccc(-c2cc(C)[n+](CCO)c(-c3ccc(OCC)cc3)c2)cc1 | > 100000 nM | 352 nM | 1080 nM |
| Cc1cc(C)nc(/N=C(\N)Nc2ccccc2O)n1 | > 100000 nM | 36.2 nM | 379 nM |
| Cc1ccc(NC(=O)CCCCC(=O)Nc2ccc(C)c(Br)c2)cc1Br | > 10000 nM | > 1450 nM | > 1160 nM |
| CCC(c1nc2ccccc2c(=O)n1-c1cccc(C)c1)N(CCc1ccccc1)C(=O)Nc1c(C(C)C)cccc1C(C)C (stereo not given) | > 8510 nM | 1100 nM | 1070 nM |
| Clc1ccc(-c2c[n+](Cc3ccccc3Cl)c3n2CCC3)cc1Cl | > 30900 nM | 1310 nM | 749 nM |
| COC(=O)c1c(-c2ccccc2Cl)csc1N | > 10000 nM | > 854 nM | > 1250 nM |
